Assay results reported in PubChem BioAssay (NCI).
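Growth conditions: 96-well plates. Treatment: test compound, 48 hours, 5 concentrations. Analysis: linear interpolation between bracketing concentrations; unreached endpoints set to highest concentration. TGI denotes the concentration required for complete inhibition of growth.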

Tested on: A498 renal
Assay: DTP human tumour cell line panel, 48 h

SMILES	TGI [µM]
Cc1ccc(S(=O)(=O)NCCSCCSCCNS(=O)(=O)c2ccc(C)cc2)cc1	91.6
COc1cc(C(c2ccc3c(c2)OCO3)N2C(=O)CCC2C(=O)O)cc(OC)c1OC (configuration not stated)	> 100

Tested on: HT29 colon
Assay: DTP human tumour cell line panel, 48 h

SMILES	TGI [µM]
CCOC(=O)[C@H](Cc1ccc(O)cc1)N=C1[C@H]2CCC[C@]1(O)[C@@](C)([N+](=O)[O-])C2	> 100
CCNC1=C(NC(=O)CC)C(=O)c2ccccc2C1=O	> 100
CC1(C)OC2C(=O)C=C(COCc3ccccc3)C2O1 (configuration not stated)	> 100
O=C(CSC1=NCCN1)Nc1ccccc1	> 100
COC12c3ccccc3-c3ccccc3C1[C@H]1C(=O)OC(=O)[C@H]12 (some centres not stated)	> 10
Cc1ccc(S(=O)(=O)NCCSCCSCCNS(=O)(=O)c2ccc(C)cc2)cc1	> 100
COc1cc(C(c2ccc3c(c2)OCO3)N2C(=O)CCC2C(=O)O)cc(OC)c1OC (configuration not stated)	> 100

Tested on: SN12C renal
Assay: DTP human tumour cell line panel, 48 h

SMILES	TGI [µM]
CCOC(=O)[C@H](Cc1ccc(O)cc1)N=C1[C@H]2CCC[C@]1(O)[C@@](C)([N+](=O)[O-])C2	> 100
CCNC1=C(NC(=O)CC)C(=O)c2ccccc2C1=O	> 100
CC1(C)OC2C(=O)C=C(COCc3ccccc3)C2O1 (configuration not stated)	> 100
O=C(CSC1=NCCN1)Nc1ccccc1	41.1
CCC1(O)C(=O)OCc2c1cc1n(c2=O)Cc2cc3cc(N)ccc3nc2-1 (configuration not stated)	0.697
COC12c3ccccc3-c3ccccc3C1[C@H]1C(=O)OC(=O)[C@H]12 (some centres not stated)	> 10
Cc1ccc(S(=O)(=O)NCCSCCSCCNS(=O)(=O)c2ccc(C)cc2)cc1	> 100
COc1cc(C(c2ccc3c(c2)OCO3)N2C(=O)CCC2C(=O)O)cc(OC)c1OC (configuration not stated)	> 100

Tested on: EKVX NSCLC
Assay: DTP human tumour cell line panel, 48 h

SMILES	TGI [µM]
CCOC(=O)[C@H](Cc1ccc(O)cc1)N=C1[C@H]2CCC[C@]1(O)[C@@](C)([N+](=O)[O-])C2	> 100
CCNC1=C(NC(=O)CC)C(=O)c2ccccc2C1=O	> 100
CC1(C)OC2C(=O)C=C(COCc3ccccc3)C2O1 (configuration not stated)	> 100
O=C(CSC1=NCCN1)Nc1ccccc1	> 100
CCC1(O)C(=O)OCc2c1cc1n(c2=O)Cc2cc3cc(N)ccc3nc2-1 (configuration not stated)	> 28.9
COC12c3ccccc3-c3ccccc3C1[C@H]1C(=O)OC(=O)[C@H]12 (some centres not stated)	> 10
COc1cc(C(c2ccc3c(c2)OCO3)N2C(=O)CCC2C(=O)O)cc(OC)c1OC (configuration not stated)	> 100

Tested on: BT-549 breast
Assay: DTP human tumour cell line panel, 48 h

SMILES	TGI [µM]
CCOC(=O)[C@H](Cc1ccc(O)cc1)N=C1[C@H]2CCC[C@]1(O)[C@@](C)([N+](=O)[O-])C2	> 100
CCNC1=C(NC(=O)CC)C(=O)c2ccccc2C1=O	> 100
CC1(C)OC2C(=O)C=C(COCc3ccccc3)C2O1 (configuration not stated)	39.8
O=C(CSC1=NCCN1)Nc1ccccc1	59.5
CCC1(O)C(=O)OCc2c1cc1n(c2=O)Cc2cc3cc(N)ccc3nc2-1 (configuration not stated)	0.0931
COc1cc(C(c2ccc3c(c2)OCO3)N2C(=O)CCC2C(=O)O)cc(OC)c1OC (configuration not stated)	> 100

Tested on: OVCAR-5 ovarian
Assay: DTP human tumour cell line panel, 48 h

SMILES	TGI [µM]
CCOC(=O)[C@H](Cc1ccc(O)cc1)N=C1[C@H]2CCC[C@]1(O)[C@@](C)([N+](=O)[O-])C2	> 100
CCNC1=C(NC(=O)CC)C(=O)c2ccccc2C1=O	> 100
CC1(C)OC2C(=O)C=C(COCc3ccccc3)C2O1 (configuration not stated)	84.6
O=C(CSC1=NCCN1)Nc1ccccc1	> 100
CCC1(O)C(=O)OCc2c1cc1n(c2=O)Cc2cc3cc(N)ccc3nc2-1 (configuration not stated)	2.94
COC12c3ccccc3-c3ccccc3C1[C@H]1C(=O)OC(=O)[C@H]12 (some centres not stated)	> 10
COc1cc(C(c2ccc3c(c2)OCO3)N2C(=O)CCC2C(=O)O)cc(OC)c1OC (configuration not stated)	> 100

Tested on: SNB-19 CNS
Assay: DTP human tumour cell line panel, 48 h

SMILES	TGI [µM]
CCOC(=O)[C@H](Cc1ccc(O)cc1)N=C1[C@H]2CCC[C@]1(O)[C@@](C)([N+](=O)[O-])C2	> 100
CCNC1=C(NC(=O)CC)C(=O)c2ccccc2C1=O	> 100
CC1(C)OC2C(=O)C=C(COCc3ccccc3)C2O1 (configuration not stated)	> 100
O=C(CSC1=NCCN1)Nc1ccccc1	> 100
CCC1(O)C(=O)OCc2c1cc1n(c2=O)Cc2cc3cc(N)ccc3nc2-1 (configuration not stated)	3.36
COC12c3ccccc3-c3ccccc3C1[C@H]1C(=O)OC(=O)[C@H]12 (some centres not stated)	> 10
Cc1ccc(S(=O)(=O)NCCSCCSCCNS(=O)(=O)c2ccc(C)cc2)cc1	> 100
COc1cc(C(c2ccc3c(c2)OCO3)N2C(=O)CCC2C(=O)O)cc(OC)c1OC (configuration not stated)	> 100

Tested on: HCC-2998 colon
Assay: DTP human tumour cell line panel, 48 h

SMILES	TGI [µM]
CCOC(=O)[C@H](Cc1ccc(O)cc1)N=C1[C@H]2CCC[C@]1(O)[C@@](C)([N+](=O)[O-])C2	> 100
CCNC1=C(NC(=O)CC)C(=O)c2ccccc2C1=O	> 100
O=C(CSC1=NCCN1)Nc1ccccc1	63.1
CCC1(O)C(=O)OCc2c1cc1n(c2=O)Cc2cc3cc(N)ccc3nc2-1 (configuration not stated)	1.37
COC12c3ccccc3-c3ccccc3C1[C@H]1C(=O)OC(=O)[C@H]12 (some centres not stated)	> 10
Cc1ccc(S(=O)(=O)NCCSCCSCCNS(=O)(=O)c2ccc(C)cc2)cc1	> 100
COc1cc(C(c2ccc3c(c2)OCO3)N2C(=O)CCC2C(=O)O)cc(OC)c1OC (configuration not stated)	> 100
